# Measurements reported in paper PMC10064984, “Anti-cyclooxygenase, anti-glycation, and anti-skin aging effect of Dendrobium officinale flowers’ aqueous extract and its phytochemical validation in aging” (Frontiers in Immunology, 2023).
# Values joined by “and” are separate entries in the source; they are usually repeats but may differ in a detail not shown here. Equal entries are not always repeated.
# Legend:
# Format in all cases: biochemical
# [1] = ABTS·+ decolourisation capacity
# Method: Fast colourimetric methods were slightly modified for the in vitro assessment of DPPH· scavenging ([19]), ABTS·+ decolourisation capacity ([20]), and total antioxidant capacity of FRAP ([21]). The stock solutions of derivatisation reagents were diluted as follows before measurement: DPPH was diluted with absolute ethanol until the absorbance was 0.8 ± 0.05 at λ = 517 nm. ABTS working solution was prepared with phosphate buffer (0.2 M, pH 7.4) to display absorbance of 0.8 ± 0.05 at λ = 729 nm, based on a previous study ([22]). The FRAP solution was prepared according to the instructions of the FRAP kit. Absorbances were measured using an automatic microplate reader (Molecular Group Ltd., USA), and all analyses were performed using 96-well plates. All measurements were performed in triplicate, and Trolox was used as a positive control.
# For ABTS·+ decolourisation capacity, 100 μl of ABTS working solution was mixed with 200 μl of sample solution, and the absorbance was recorded after 10 min at 729 nm. Phosphate buffer (0.2 M, pH 7.4) was used as a negative control.
# DPPH· and ABTS·+ radical scavenging activities of the tested sample were both calculated using the following formula:
# % inhibition = (A control − A sample)/A control × 100
# Where A control and A sample represent the absorbance of the control and test samples, respectively. The IC50 was calculated graphically from the dose-inhibition curves.
# DPPH· scavenging = test: DPPH· scavenging;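 further: colourimetric DPPH radical scavenging in 96-well plates, absorbance read-out, percent inhibition relative to ethanol control absorbance, IC50 derived graphically from dose-inhibition curves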
# [2] = FRAP total antioxidant capacity; settings: for 标准曲线对应浓度 mM FeSO4 (FRAP, FeSO4 equivalent from standard curve): individual replicates; for 标准曲线对应浓度 mM FeSO4, mean: mean of 3;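 on all read-outs here: colourimetric FRAP kit assay read as absorbance in 96-well plates, values as mM FeSO4 via standard curve, EC1 being sample concentration matching 1.0 mmol/L FeSO4, Trolox positive control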
# [3] = Fluorescent AGEs formation in a BSA-fructose/glucose system; settings: for inhibition of fluorescent AGEs formation (BSA-抗糖化), 平均 (mean): mean of 3; for IC50: BSA-抗糖化
# Method: Glycated protein was prepared in vitro by incubating BSA in the presence of D-glucose (GLC) and D-fructose (FRC). The DOF extract and specific standards were dissolved in DMSO:water (1:4). […] The assay was performed in triplicate, and AG was used as a positive control. The percentage inhibition of fluorescent AGE formation was calculated using the following equation: […] Where IF sample is fluorescence intensity in the presence of samples and BSA, IF sample control is fluorescence intensity in the presence of samples without BSA, IF control is fluorescence intensity without samples, and IF blank control is fluorescence intensity without samples and BSA.
# [4] = upper part of sheet (extract series), positive control also given in μM
smiles,measurement,setting,value
"Cc1c(C)c2c(c(C)c1O)CCC(C)(C(=O)O)O2 (centres unmarked) [Trolox, 6-hydroxyl-2,5,7,8-tetra-methylchroman-2-carboxylic acid, reference compound]",ABTS scavenging rate,"[1]; 7.8125 ug/ml, single replicate wells",8.24% and 9.20% and 7.27%
same,ABTS scavenging rate,"[1]; 15.625 ug/ml, single replicate wells",16.72% and 19.40% and 19.88%
same,ABTS scavenging rate,"[1]; 31.25 ug/ml, single replicate wells",61.34% and 52.07% and 52.74%
same,ABTS scavenging rate,"[1]; 62.5 ug/ml, single replicate wells",94.28% and 95.58% and 92.94%
same,ABTS scavenging rate,"[1]; 125 ug/ml, single replicate wells",96.25% (2×) and 96.22%
same,ABTS scavenging rate,"[1]; 250 ug/ml, single replicate wells",96.32% and 96.28% and 96.27%
same,ABTS scavenging rate,"[1]; 0.5mM series, concentration 7.8125 (unit not given), replicate wells",5.05% and 4.88% and 5.29%
same,ABTS scavenging rate,"[1]; 0.5mM series, concentration 15.625 (unit not given), replicate wells",12.72% and 13.81% and 12.64%
same,ABTS scavenging rate,"[1]; 0.5mM series, concentration 31.25 (unit not given), replicate wells",31.58% and 33.31% and 33.45%
same,ABTS scavenging rate,"[1]; 0.5mM series, concentration 62.5 (unit not given), replicate wells",67.91% and 69.65% and 70.29%
same,ABTS scavenging rate,"[1]; 0.5mM series, concentration 125 (unit not given), replicate wells",99.61% and 99.52% and 99.85%
same,ABTS scavenging rate,"[1]; 0.5mM series, concentration 250 (unit not given), replicate wells",99.86% and 99.73% and 99.90%
same,ABTS scavenging rate,"[1]; 0.5mM series, concentration 500 (unit not given), replicate wells",99.85% and 99.75% and 99.73%
same,ABTS scavenging rate,"[1]; 500 ug/ml, single replicate wells",96.17% and 96.23% and 96.35%
same,IC50,"[1]; mean ± SD, n = 3",145.7 ± 1.22 µM
same,IC50,[1]; [4],111 µM
same,"DPPH scavenging (sheet ""DPPH""), single replicate",DPPH· scavenging; 15.625 ug/ml,32.84% and 29.98% and 33.39%
same,"DPPH scavenging (sheet ""DPPH""), single replicate",DPPH· scavenging; 31.25 ug/ml,58.95% and 55.65% and 57.84%
same,"DPPH scavenging (sheet ""DPPH""), single replicate",DPPH· scavenging; 62.5 ug/ml,84.01% and 87.99% and 89.81%
same,"DPPH scavenging (sheet ""DPPH""), single replicate",DPPH· scavenging; 125 ug/ml,89.42% and 88.80% and 89.64%
same,"DPPH scavenging (sheet ""DPPH""), single replicate",DPPH· scavenging; 250 ug/ml,88.55% and 89.46% and 90.81%
same,"DPPH scavenging (sheet ""DPPH""), single replicate",DPPH· scavenging; 500 ug/ml,93.00% and 92.15% and 93.91%
same,"DPPH scavenging (sheet ""DPPH""), single replicate",DPPH· scavenging; 1000 ug/ml,95.26% and 95.19% and 95.32%
same,IC50,"DPPH· scavenging; mean ± SD, n = 3",159 ± 4.47 µM
same,IC50,DPPH· scavenging; [4],98.8 µM
same,"标准曲线对应浓度 mM FeSO4 (FRAP, FeSO4 equivalent from standard curve)",[2]; 0.15 mM (37.5 μg/ml),0.9597 mM FeSO4 and 0.8823 mM FeSO4 and 0.8550 mM FeSO4
same,"标准曲线对应浓度 mM FeSO4, mean",[2]; 0.15 mM (37.5 μg/ml),0.8990 mM FeSO4
same,"标准曲线对应浓度 mM FeSO4 (FRAP, FeSO4 equivalent from standard curve)",[2]; 0.3 mM (75 μg/ml),1.6552 mM FeSO4 and 1.6329 mM FeSO4 and 1.5219 mM FeSO4
same,"标准曲线对应浓度 mM FeSO4, mean",[2]; 0.3 mM (75 μg/ml),1.6033 mM FeSO4
same,"标准曲线对应浓度 mM FeSO4 (FRAP, FeSO4 equivalent from standard curve)",[2]; 0.6 mM (150 μg/ml),3.1630 mM FeSO4 and 2.8987 mM FeSO4 and 2.7627 mM FeSO4
same,"标准曲线对应浓度 mM FeSO4, mean",[2]; 0.6 mM (150 μg/ml),2.9415 mM FeSO4
same,"标准曲线对应浓度 mM FeSO4 (FRAP, FeSO4 equivalent from standard curve)",[2]; 0.9 mM (225 μg/ml),4.4046 mM FeSO4 and 4.2357 mM FeSO4 and 4.0364 mM FeSO4
same,"标准曲线对应浓度 mM FeSO4, mean",[2]; 0.9 mM (225 μg/ml),4.2256 mM FeSO4
same,"标准曲线对应浓度 mM FeSO4 (FRAP, FeSO4 equivalent from standard curve)",[2]; 1.2 mM (300 μg/ml),5.8342 mM FeSO4 and 5.5270 mM FeSO4 and 5.3675 mM FeSO4
same,"标准曲线对应浓度 mM FeSO4, mean",[2]; 1.2 mM (300 μg/ml),5.5762 mM FeSO4
same,"标准曲线对应浓度 mM FeSO4 (FRAP, FeSO4 equivalent from standard curve)",[2]; 1.5 mM (375 μg/ml),6.9332 mM FeSO4 and 6.7909 mM FeSO4 and 6.4969 mM FeSO4
same,"标准曲线对应浓度 mM FeSO4, mean",[2]; 1.5 mM (375 μg/ml),6.7403 mM FeSO4
same,FRAP EC1,[2]; lower part of sheet (compound series),559.8 ± 19.4 µM
same,FRAP EC1,"[2]; mean ± SD, n = 3",559.8 ± 19.4 µM
same,FRAP EC1,[2]; upper part of sheet (extract series),55.35 ± 5.22 µg/mL
O=C(O)CC(=O)OC[C@H]1O[C@@H](Oc2c(-c3ccc(O)c(O)c3)oc3cc(O)cc(O)c3c2=O)[C@H](O)[C@@H](O)[C@@H]1O,"inhibition of fluorescent AGEs formation (BSA-抗糖化), single replicate",[3]; 15.625 µM,10.51% and 15.35% and 23.11%
same,"inhibition of fluorescent AGEs formation (BSA-抗糖化), single replicate",[3]; 31.25 µM,5.08% and 5.86% and 10.67%
same,"inhibition of fluorescent AGEs formation (BSA-抗糖化), 平均 (mean)",[3]; 31.25 µM,7.20%
same,"inhibition of fluorescent AGEs formation (BSA-抗糖化), single replicate",[3]; 62.5 µM,17.13% and 15.89% and 16.80%
same,"inhibition of fluorescent AGEs formation (BSA-抗糖化), 平均 (mean)",[3]; 62.5 µM,16.61%
same,"inhibition of fluorescent AGEs formation (BSA-抗糖化), single replicate",[3]; 125 µM,26.98% and 29.78% and 30.07%
same,"inhibition of fluorescent AGEs formation (BSA-抗糖化), 平均 (mean)",[3]; 125 µM,28.94%
same,"inhibition of fluorescent AGEs formation (BSA-抗糖化), single replicate",[3]; 250 µM,45.50% and 47.09% and 47.76%
same,"inhibition of fluorescent AGEs formation (BSA-抗糖化), 平均 (mean)",[3]; 250 µM,46.78%
same,"inhibition of fluorescent AGEs formation (BSA-抗糖化), single replicate",[3]; 500 µM,61.62% and 62.32% and 63.30%
same,"inhibition of fluorescent AGEs formation (BSA-抗糖化), 平均 (mean)",[3]; 500 µM,62.41%
same,"inhibition of fluorescent AGEs formation (BSA-抗糖化), single replicate",[3]; 1000 µM,77.56% and 77.94% and 77.85%
same,"inhibition of fluorescent AGEs formation (BSA-抗糖化), 平均 (mean)",[3]; 1000 µM,77.78%
same,"inhibition of fluorescent AGEs formation (BSA-抗糖化), single replicate",[3]; 2000 µM,88.53% and 88.63% and 88.83%
same,"inhibition of fluorescent AGEs formation (BSA-抗糖化), 平均 (mean)",[3]; 2000 µM,88.66%
same,"inhibition of fluorescent AGEs formation (BSA-抗糖化), single replicate",[3]; 4000 µM,94.35% and 94.74% and 94.79%
same,"inhibition of fluorescent AGEs formation (BSA-抗糖化), 平均 (mean)",[3]; 4000 µM,94.62%
same,IC50,"[3]; mean of 3 replicate IC50, read-out: IC50µM, mean",288 µM
same,IC50,"[3]; per replicate curve, read-out: IC50µM, single replicate",306 µM and 289 µM and 270 µM
